Consider 1 compound from patent US11007206B2, “Cyclic boronic acid ester derivatives and therapeutic uses thereof” (Melinta Subsidiary Corp., priority 2012, dated 2021).

For orientation: half-life means how long it takes for the measured level to halve. A word on the AUC: it is the area under the concentration-time curve, a measure of exposure. A low value points to low exposure. One may read the Cmax as the peak of the concentration-time curve.

The nature of data set [1]: Single-dose pharmacokinetics of Compound I across all preclinical species, summary statements incl. coadministration of Biapenem (Example 5). Format: in vivo. The protocol:
(§1) Example 5 provides the single-dose pharmacokinetic studies of Compound I inpreclinical species, including intraperitoneal administration to Swiss-Webster mice and intravaneous administration to Sprague-Dawley rats, Beagle dogs, and Cynomologus monkeys.
(§2) Intravaneous doses of Compound I were administered as 30-minute infusions. The pharmacokinetics of Compound I were also studied with coadministration of the carbapenem, Biapenem. Compound I concentrations were determined using an LC-MS detection method.

Data set [2] in a line: Single-dose pharmacokinetics of Compound I, intravenous 30-minute infusion in Cynomologus monkeys (Example 5). Format: in vivo. The note with it: Monkey; for half-life / AUC / Cmax: in vivo. The protocol: as §1, §2

As to `O=C(O)C[C@@H]1CC[C@H](NC(=O)Cc2cccs2)B(O)O1` [Compound I], the Pharmacokinetic properties result in data set [1] (across all species (mice, rats, dogs, monkeys), single dose) was “linear and favorable pharmacokinetic properties”. Further, in data set [1] (across preclinical species, single dose), the “Dose dependence of clearance and volume of distribution” value is on record as “independent of dose”. In data set [1] (coadministration of Biapenem), the “PK drug interactions between Compound I and Biapenem” value is on record as “No PK drug interactions”. Also, the “CL or CL/F” value in data set [2] (2 mg/kg IV) stood at 8.5 ± 1.2 mL/min/kg; in data set [2] (6 mg/kg IV), 8.33 ± 1.3 mL/min/kg; in data set [2] (20 mg/kg IV), 8 ± 0.5 mL/min/kg. Besides, the half-life in data set [2] (cynomolgus, 6 mg/kg IV) is 33 ± 7.2 min; in data set [2] (cynomolgus, 20 mg/kg IV), 113 ± 104 min; in data set [2] (2 mg/kg IV), 34.2 ± 1.8 min. Besides, the AUC came out at 41800 ± 2530 ng·h/mL in data set [2] (cynomolgus, 20 mg/kg IV); 3960 ± 510 ng·h/mL in data set [2] (2 mg/kg IV); 12200 ± 1890 ng·h/mL in data set [2] (6 mg/kg IV). For the same compound, the Cmax in data set [2] (cynomolgus, 20 mg/kg IV) came out at 54900 ± 3320 ng/mL; in data set [2] (2 mg/kg IV), 5350 ± 280 ng/mL; in data set [2] (6 mg/kg IV) it was 17000 ± 1680 ng/mL.
